In patent US8178544B2, “2, 3-diamino-quinazolinone derivatives and their medical use” (Neurosearch A/S, priority 2007, dated 2012):

Target: T1, human Kv7.2+Kv7.3 channels (Homo sapiens, UniProt O43525+O43526)
T1 construct: expressed in transfected cells; host or cells: HEK293
Assay: Patch-clamp on HEK293 cell lines stably expressing human Kv7.2+Kv7.3 channels
Assay type: cell-based
Conditions: current relative to baseline current defined as 100%, HEK293 cells, test concentration not given
Description: The effect obtained by these channel activators is described as a percentage increase in baseline current at a given concentration. The baseline current is defined as 100%, and an increase in current is expressed relative to this, i.e. an increase from 1 nA to 1.2 nA is reported as 120%.

Structure (SMILES) | IK (%) at −30 mV, 1 s
O=C(Cc1cc(F)cc(F)c1)Nn1c(N2CCCC2)nc2ccccc2c1=O [Compound C1, 2-(3,5-Difluoro-phenyl)-N-(4-oxo-2-pyrrolidin-1-yl-4H-quinazolin-3-yl)-acetamide] | 150%
CCN(CC)c1nc2ccccc2c(=O)n1NC(=O)Cc1ccc(Cl)cc1 [Compound C3, 2-(4-Chloro-phenyl)-N-(2-diethylamino-4-oxo-4H-quinazolin-3-yl)-acetamide] | 144%
CC(C(=O)Nn1c(N(C)C)nc2cc(C(F)(F)F)ccc2c1=O)c1cc(F)cc(F)c1 (stereo not shown) [Compound C5, 2-(3,5-Difluoro-phenyl)-N-(2-dimethylamino-4-oxo-7-trifluoromethyl-4H-quinazolin-3yl)-propionamide] | 143%
O=C(Cc1ccc(C(F)(F)F)c(F)c1)Nn1c(N2CCCC2)nc2ccccc2c1=O [Compound C11, 2-(3-Fluoro-4-trifluoromethyl-phenyl)-N-(4-oxo-2-pyrrolidin-1-yl-4H-quinazolin-3-yl)-acetamide] | 153%
CCN(CC)c1nc2ccc(F)cc2c(=O)n1NC(=O)Cc1cc(F)cc(F)c1 [Compound C19, N-(2-Diethylamino-6-fluoro-4-oxo-4H-quinazolin-3-yl)-2-(3,5-difluoro-phenyl)-acetamide] | 215%
CCN(CC)c1nc2ccccc2c(=O)n1NC(=O)Cc1cc(F)cc(F)c1 [Compound D2, N-(2-Diethylamino-4-oxo-4H-quinazolin-3-yl)-2-(3,5-difluoro-phenyl)-acetamide] | 290%
CCN(CC)c1nc2ccc(O)cc2c(=O)n1NC(=O)Cc1cc(F)cc(F)c1 [Compound F1, N-(2-Diethylamino-6-hydroxy-4-oxo-4H-quinazolin-3-yl)-2-(3,5-difluoro-phenyl)-acetamide] | 110%
